From ChEMBL document CHEMBL1140941 (J Med Chem, 2009)
Activity calls are given as the source filed them. The rule behind the calls is not given here.

Columns and labels:
[1] = biological target: Retinoic acid receptor RXR-alpha (Homo sapiens) (UniProt P19793); assay: Agonist activity at RXRalpha-LBD expressed in african green monkey CV1 cells co-expressing MH100 by luciferase reporter gene assay; assay type: functional, cell-based; conditions: CV-1
[2] = biological target: Retinoic acid receptor gamma (Homo sapiens) (UniProt P13631); assay: Agonist activity at gal-RARgamma expressed in african green monkey CV1 cells co-expressing MH100 by luciferase reporter gene assay; assay type: functional, cell-based; conditions: CV-1
[3] = biological target: Oxysterols receptor LXR-beta (Homo sapiens) (UniProt P55055); assay: Agonist activity at LXRbeta expressed in african green monkey CV1 cells co-expressing LXRE by luciferase reporter gene assay; assay type: functional, cell-based; conditions: CV-1
[4] = biological target: T1, Glucocorticoid receptor (Homo sapiens) (UniProt P04150); assay: Agonist activity at gal-GR expressed in african green monkey CV1 cells co-expressing MH100 up to 10 uM by luciferase reporter gene assay relative to control; assay type: functional, cell-based; conditions: CV-1
T1 sequence (whole entry): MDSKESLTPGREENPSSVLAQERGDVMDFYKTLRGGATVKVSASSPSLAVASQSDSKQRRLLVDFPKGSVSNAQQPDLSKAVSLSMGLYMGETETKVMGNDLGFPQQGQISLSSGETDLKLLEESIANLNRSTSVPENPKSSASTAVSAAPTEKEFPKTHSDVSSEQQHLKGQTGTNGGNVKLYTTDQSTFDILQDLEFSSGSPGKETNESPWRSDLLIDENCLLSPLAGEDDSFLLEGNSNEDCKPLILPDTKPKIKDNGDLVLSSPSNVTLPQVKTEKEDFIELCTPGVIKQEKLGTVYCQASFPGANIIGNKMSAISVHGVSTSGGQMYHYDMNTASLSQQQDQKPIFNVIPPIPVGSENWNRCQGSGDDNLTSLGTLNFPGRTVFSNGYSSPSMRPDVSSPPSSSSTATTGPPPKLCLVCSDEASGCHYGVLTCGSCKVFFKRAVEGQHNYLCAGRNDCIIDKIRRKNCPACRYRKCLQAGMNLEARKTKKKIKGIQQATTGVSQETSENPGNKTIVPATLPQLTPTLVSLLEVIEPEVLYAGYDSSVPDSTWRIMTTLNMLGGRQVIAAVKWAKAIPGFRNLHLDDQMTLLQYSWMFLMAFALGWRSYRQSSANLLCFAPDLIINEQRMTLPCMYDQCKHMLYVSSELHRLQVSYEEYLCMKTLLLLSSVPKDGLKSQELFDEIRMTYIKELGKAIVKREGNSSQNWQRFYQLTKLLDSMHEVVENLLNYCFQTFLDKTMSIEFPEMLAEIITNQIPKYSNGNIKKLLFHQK

[5] = biological target: T2, Peroxisome proliferator-activated receptor alpha (Homo sapiens) (UniProt Q07869); assay: Agonist activity at PPARalpha expressed in african green monkey CV1 cells co-expressing MH100 by luciferase reporter gene assay; assay type: functional, cell-based; conditions: CV-1
T2 sequence (whole entry): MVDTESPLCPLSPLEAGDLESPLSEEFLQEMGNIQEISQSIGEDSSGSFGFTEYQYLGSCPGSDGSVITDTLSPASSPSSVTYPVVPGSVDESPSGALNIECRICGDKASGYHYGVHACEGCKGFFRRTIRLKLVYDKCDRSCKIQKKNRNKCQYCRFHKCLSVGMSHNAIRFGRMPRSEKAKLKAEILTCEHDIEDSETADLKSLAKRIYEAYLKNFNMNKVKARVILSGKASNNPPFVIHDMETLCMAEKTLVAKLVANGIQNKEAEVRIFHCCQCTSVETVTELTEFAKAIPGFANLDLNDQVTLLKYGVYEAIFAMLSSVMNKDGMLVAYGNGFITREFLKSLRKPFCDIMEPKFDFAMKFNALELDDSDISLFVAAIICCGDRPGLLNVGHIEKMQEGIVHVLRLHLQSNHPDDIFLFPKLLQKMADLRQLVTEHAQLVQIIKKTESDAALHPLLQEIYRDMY

Progesterone receptor = Progesterone receptor (Homo sapiens, UniProt P06401); assay: Antagonist activity at gal-PR expressed in african green monkey CV1 cells co-expressing MH100 by luciferase reporter gene assay; assay type: functional, cell-based, CV-1
[6] = biological target: T3, Peroxisome proliferator-activated receptor delta (Homo sapiens) (UniProt Q03181); assay: Agonist activity at PPARdelta expressed in african green monkey CV1 cells co-expressing MH100 up to 10 uM by luciferase reporter gene assay relative to control; assay type: functional, cell-based; conditions: CV-1
T3 sequence (whole entry): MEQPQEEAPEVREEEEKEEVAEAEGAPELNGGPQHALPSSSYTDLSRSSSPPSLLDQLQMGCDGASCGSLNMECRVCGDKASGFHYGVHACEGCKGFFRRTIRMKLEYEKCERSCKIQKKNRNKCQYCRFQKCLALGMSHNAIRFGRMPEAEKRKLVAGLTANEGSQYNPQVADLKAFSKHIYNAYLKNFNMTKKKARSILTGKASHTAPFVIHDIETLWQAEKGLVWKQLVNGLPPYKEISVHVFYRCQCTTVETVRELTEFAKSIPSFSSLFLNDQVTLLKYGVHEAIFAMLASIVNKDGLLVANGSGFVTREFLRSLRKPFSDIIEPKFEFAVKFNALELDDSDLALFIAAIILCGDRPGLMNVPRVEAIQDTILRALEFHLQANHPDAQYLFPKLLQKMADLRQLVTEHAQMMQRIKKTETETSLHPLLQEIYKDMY

[7] = Cmax in CD rat at 3 mg/kg, po; assay type: ADME, organism-based; set-up: dose 3 mg/kg, route oral; conditions: in vivo
[8] = biological target: T1, Glucocorticoid receptor (Homo sapiens); assay: Antagonist activity at gal-GR expressed in african green monkey CV1 cells co-expressing MH100 at 10 uM by luciferase reporter gene assay; assay type: functional, cell-based; conditions: CV-1
Androgen receptor = Androgen receptor (Homo sapiens, UniProt P10275); assay: Antagonist activity at gal-AR expressed in african green monkey CV1 cells co-expressing MH100 with GRIP1 co-factor by luciferase reporter gene assay; assay type: functional, cell-based, CV-1
Estrogen receptor = Estrogen receptor (Homo sapiens, UniProt P03372); assay: Antagonist activity at gal-ERalpha expressed in african green monkey CV1 cells co-expressing MH100 by luciferase reporter gene assay; assay type: functional, cell-based, CV-1
[9] = biological target: Steroid hormone receptor ERR1 (Homo sapiens) (UniProt P11474); assay: Antagonist activity at ERRalpha expressed in african green monkey CV1 cells by luciferase reporter gene assay; assay type: functional, cell-based; conditions: CV-1
Mus musculus = assay: Reduction of plasma triglyceride level in western diet-induced hyperlipidemia LDLR knockout mouse model at 3 mg/kg, po administered for 6 weeks; assay type: functional; set-up: scale not given: the % may be the effect or the level left
[10] = biological target: Vitamin D3 receptor (Homo sapiens) (UniProt P11473); assay: Agonist activity at VP16-VDR expressed in african green monkey CV1 cells co-expressing MH100 up to 10 uM by luciferase reporter gene assay relative to control; assay type: functional, cell-based; conditions: CV-1
Chain of Vitamin D3 receptor (Homo sapiens) (P11473 whole entry): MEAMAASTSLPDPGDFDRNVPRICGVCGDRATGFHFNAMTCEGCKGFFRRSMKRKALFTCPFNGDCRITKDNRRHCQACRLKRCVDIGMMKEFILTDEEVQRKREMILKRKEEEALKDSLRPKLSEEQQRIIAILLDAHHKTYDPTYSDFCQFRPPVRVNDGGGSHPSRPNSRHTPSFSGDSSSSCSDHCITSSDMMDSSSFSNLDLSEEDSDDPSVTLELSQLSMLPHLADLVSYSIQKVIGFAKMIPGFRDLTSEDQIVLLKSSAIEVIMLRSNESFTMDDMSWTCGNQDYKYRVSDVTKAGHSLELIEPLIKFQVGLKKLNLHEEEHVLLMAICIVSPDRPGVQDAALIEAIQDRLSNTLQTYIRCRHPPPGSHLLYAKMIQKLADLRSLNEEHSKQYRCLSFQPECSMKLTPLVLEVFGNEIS

Chain of Steroid hormone receptor ERR1 (Homo sapiens) (P11474 whole entry): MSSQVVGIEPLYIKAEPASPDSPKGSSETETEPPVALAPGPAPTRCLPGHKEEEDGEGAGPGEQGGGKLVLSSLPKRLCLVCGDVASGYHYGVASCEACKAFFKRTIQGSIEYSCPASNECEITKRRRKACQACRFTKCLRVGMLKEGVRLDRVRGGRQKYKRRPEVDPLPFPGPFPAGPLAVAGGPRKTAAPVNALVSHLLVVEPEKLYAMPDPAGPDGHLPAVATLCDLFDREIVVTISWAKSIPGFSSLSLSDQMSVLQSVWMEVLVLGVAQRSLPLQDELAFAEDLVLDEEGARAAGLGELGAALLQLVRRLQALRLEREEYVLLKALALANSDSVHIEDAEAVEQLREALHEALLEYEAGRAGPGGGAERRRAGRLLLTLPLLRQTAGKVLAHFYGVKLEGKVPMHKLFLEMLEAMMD
Chain of Retinoic acid receptor gamma (Homo sapiens) (P13631 whole entry): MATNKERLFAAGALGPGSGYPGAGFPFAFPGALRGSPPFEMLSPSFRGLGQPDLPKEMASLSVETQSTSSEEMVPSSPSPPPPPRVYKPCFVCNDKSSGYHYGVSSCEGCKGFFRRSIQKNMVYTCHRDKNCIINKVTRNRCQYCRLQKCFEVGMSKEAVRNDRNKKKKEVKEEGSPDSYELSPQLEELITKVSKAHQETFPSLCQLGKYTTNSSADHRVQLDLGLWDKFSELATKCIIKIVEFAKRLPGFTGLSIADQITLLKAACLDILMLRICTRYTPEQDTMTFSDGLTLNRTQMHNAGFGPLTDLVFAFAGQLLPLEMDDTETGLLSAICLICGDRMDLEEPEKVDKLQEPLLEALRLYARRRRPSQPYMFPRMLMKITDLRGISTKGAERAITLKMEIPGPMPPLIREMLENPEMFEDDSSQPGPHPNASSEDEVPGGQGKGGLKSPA
Chain of Androgen receptor (P10275 whole entry): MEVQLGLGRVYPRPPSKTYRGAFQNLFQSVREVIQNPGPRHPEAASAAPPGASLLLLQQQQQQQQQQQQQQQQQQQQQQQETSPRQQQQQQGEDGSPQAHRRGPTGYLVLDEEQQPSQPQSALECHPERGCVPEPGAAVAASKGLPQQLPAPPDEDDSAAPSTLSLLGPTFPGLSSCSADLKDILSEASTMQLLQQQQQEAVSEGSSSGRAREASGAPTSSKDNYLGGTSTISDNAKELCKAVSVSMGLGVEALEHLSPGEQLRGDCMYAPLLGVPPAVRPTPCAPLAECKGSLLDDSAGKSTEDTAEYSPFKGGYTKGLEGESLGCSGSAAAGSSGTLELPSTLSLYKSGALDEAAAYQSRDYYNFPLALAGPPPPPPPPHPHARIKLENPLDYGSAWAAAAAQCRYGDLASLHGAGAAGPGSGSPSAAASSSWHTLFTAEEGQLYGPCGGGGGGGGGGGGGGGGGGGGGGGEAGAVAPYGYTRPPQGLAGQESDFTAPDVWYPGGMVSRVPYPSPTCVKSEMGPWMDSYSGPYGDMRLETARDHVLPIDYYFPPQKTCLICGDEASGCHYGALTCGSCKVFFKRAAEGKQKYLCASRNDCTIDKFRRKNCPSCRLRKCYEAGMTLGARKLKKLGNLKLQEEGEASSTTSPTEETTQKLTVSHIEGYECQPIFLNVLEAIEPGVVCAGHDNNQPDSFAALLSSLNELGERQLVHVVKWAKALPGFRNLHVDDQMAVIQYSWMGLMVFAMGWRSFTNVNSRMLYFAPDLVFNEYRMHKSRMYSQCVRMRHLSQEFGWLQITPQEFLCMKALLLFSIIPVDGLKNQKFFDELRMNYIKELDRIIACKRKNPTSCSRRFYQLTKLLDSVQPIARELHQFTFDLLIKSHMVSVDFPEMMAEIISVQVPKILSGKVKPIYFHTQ
Chain of Retinoic acid receptor RXR-alpha (Homo sapiens) (P19793 whole entry, the tested form may be a part): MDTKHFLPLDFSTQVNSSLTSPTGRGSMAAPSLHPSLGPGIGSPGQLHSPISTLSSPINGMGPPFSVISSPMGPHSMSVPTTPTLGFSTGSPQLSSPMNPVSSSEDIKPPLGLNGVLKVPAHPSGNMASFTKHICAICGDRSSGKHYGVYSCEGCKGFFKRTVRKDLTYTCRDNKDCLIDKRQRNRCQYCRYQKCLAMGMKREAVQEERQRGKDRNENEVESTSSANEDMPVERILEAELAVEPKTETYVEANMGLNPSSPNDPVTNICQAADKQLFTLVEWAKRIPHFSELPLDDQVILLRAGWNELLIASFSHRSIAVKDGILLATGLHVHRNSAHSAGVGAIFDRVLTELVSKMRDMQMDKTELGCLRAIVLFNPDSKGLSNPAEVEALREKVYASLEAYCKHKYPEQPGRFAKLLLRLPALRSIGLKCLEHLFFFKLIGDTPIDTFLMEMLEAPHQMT
Chain of Estrogen receptor (P03372 whole entry): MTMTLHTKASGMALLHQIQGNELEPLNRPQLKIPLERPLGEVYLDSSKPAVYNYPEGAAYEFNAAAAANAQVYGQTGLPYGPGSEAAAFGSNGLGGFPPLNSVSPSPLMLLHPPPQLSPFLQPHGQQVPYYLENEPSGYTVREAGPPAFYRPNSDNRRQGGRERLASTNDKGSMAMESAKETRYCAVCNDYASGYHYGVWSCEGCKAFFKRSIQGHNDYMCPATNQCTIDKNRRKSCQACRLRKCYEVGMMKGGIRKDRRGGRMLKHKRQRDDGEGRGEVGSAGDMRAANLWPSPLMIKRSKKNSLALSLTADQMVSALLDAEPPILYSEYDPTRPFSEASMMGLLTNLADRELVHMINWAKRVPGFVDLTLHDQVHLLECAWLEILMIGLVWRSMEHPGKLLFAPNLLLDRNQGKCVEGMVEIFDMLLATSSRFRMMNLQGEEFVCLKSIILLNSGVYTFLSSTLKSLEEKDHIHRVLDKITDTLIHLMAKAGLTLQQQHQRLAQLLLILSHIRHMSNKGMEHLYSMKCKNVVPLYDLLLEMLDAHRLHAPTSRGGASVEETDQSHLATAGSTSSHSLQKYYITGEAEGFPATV
Chain of Progesterone receptor (P06401 whole entry): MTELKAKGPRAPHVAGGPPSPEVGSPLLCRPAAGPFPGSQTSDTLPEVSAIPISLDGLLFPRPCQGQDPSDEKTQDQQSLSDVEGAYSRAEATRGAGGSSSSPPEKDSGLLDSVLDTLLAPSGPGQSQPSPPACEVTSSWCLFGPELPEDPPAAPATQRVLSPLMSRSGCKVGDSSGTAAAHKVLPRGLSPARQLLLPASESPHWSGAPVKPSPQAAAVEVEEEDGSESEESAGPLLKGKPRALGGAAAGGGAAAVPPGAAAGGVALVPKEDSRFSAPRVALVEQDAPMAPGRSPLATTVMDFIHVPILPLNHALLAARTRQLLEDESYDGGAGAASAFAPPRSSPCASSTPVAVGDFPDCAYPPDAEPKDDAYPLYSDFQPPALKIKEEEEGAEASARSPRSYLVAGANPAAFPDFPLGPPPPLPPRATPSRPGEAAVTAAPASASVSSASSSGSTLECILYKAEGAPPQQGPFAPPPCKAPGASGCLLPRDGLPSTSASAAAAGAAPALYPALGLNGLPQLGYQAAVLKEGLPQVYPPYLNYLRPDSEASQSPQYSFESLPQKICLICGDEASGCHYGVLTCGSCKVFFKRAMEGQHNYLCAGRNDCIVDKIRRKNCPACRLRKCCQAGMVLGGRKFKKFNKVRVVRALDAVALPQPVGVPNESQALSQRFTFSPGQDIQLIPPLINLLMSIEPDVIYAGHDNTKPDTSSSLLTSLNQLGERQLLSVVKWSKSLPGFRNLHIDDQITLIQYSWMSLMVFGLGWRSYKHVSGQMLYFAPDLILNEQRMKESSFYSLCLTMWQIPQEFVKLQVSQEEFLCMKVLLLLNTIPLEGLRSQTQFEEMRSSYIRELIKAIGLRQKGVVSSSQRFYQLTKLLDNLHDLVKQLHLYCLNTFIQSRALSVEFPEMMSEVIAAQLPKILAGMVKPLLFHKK
Chain of Oxysterols receptor LXR-beta (Homo sapiens) (P55055 whole entry): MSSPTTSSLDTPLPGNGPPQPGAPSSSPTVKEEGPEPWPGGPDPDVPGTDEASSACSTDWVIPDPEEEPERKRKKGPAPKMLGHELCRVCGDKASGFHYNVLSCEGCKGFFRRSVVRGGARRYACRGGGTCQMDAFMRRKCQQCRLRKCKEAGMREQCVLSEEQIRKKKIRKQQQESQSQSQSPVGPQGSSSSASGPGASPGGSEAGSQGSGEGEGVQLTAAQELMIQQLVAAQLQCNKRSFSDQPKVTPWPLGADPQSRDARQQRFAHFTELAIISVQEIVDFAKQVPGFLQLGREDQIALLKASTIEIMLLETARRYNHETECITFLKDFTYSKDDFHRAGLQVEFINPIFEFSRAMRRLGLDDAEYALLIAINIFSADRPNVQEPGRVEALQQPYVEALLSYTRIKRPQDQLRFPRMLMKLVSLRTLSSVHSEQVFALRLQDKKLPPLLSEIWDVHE

## CC(C)OC(=O)C1=CN(C(=O)c2ccc(F)c(F)c2)CC(C)(C)c2c1[nH]c1ccccc21 [TUROFEXORATE ISOPROPYL]
[1]
  Activity: inactive
[2]
  Activity: inactive
[3]
  Activity: inactive
[4]
  Activity: inactive
[5]
  Activity: inactive
Progesterone receptor
  IC50: 10 µM
[6]
  Activity: inactive
[7]
  Cmax: 500 nM
[8]
  inhibition: 35%
Androgen receptor
  IC50: 10 µM
Estrogen receptor
  IC50: 10 µM
[9]
  Activity: inactive
Mus musculus
  Activity: 39%
[10]
  Activity: inactive
